From patent US20240166643A1, “IMIDAZO[1,2-A]PYRIDINE COMPOUNDS AND THEIR USE IN THERAPY” (Imperial College Innovations Limited, priority 2020, published 2024)

Legend:
[1] = system: Plasmodium falciparum 3D7; assay: SYBR Green assay, Plasmodium falciparum strain 3D7; format: cell-based; details: P. falciparum strain 3D7, 96 h incubation, read-out: Pf EC50 strain 3D7
[2] = system: BL-41 cells; assay: Metabolic activity assay (MTS assay) in BL-41 cell line; format: cell-based; details: Homo sapiens, 72 h
[3] = system: Ramos cells; assay: CellTiter-Blue assay, Ramos; format: cell-based; details: Homo sapiens, Ramos cell line, 72 hours
Experimental: (§1) Assay (d): CellTiter-Blue® Assay
(§2) BL-41, Ramos, Raji and A20 cells (obtained from Cell Services at the Crick Institute; cell type of BL-41, Ramos, Raji: Burkitt's Lymphoma; cell type of A20: murine B cell lymphoma cell line) were grown in RPMI-1640 media in 5% CO2 (supplemented with 10% FBS). The cells were seeded in 96-well plates, 24 h prior to treatment. Cell suspensions were prepared by adjusting the cell density to the appropriate concentration (as stated in the Table 9 below) and 50 μL of the cell suspension was transferred to wells B-G in columns 2-11 of a 96-well plate. […]
(§3) 72 hours later, 20 μl/well CellTiter-Blue® (G8081, Promega) were added to the plates according to the manufacturer's protocol, the plate was incubated at 37° C. for 2 or 3-4 h (A20, Ramos and Raji: 2 h; BL-41 and EL-4: 3-4 h), followed by measuring the absorbance per well at 570 nm using an EnVision plate reader. […] The metabolic activity was calculated as a percentage relative to the positive control. The EC50 values were calculated using GraphPad Prism.

[4] = system: BL-41 cells; assay: CellTiter-Blue assay, BL-41; format: cell-based; details: Homo sapiens, BL41 cell line, 72 hours
Experimental: as §1, §2, §3

[5] = system: SU-DHL-10 cells; assay: Cell cytotoxicity in SU-DHL-10 cell line (CellTiter-Glo); format: cell-based; details: Homo sapiens, SU-DHL10; CellTiter-Glo, 48 h; read-out: SU-DHL-10 EC50
[6] = system: EL4 cells; assay: CellTiter-Blue assay, EL4; format: cell-based; details: EL4 cell line, 72 hours
Experimental: as §1
Cell suspensions were prepared by adjusting the cell density to the appropriate concentration (as stated in the Table 10 below) and 50 μL of the cell suspension was transferred to wells B-G in columns 2-11 of a 96-well plate.
For each the BL-41, Ramos, Raji, A20 cell lines and EL4, twenty-four hours later, 50 μL of the growth media for the respective cell line (positive control), a mix of Puromycin and Staurosporine (negative controls, final concentration 10 μg/mL and 1 μM respectively) or different concentrations of each Example compound being tested (dilution factor=3, starting at μM, final concentration in the plate starting from 10 μM) were prepared and added to a well of the 96-well plate. The plate was incubated at 37° C. with 5% CO2 level.
72 hours later, 20 μl/well CellTiter-Blue® (G8081, Promega) were added to the plates according to the manufacturer's protocol, the plate was incubated at 37° C. for 2 or 3-4 h (A20, Ramos and Raji: 2 h; BL-41 and EL-4: 3-4 h), followed by measuring the absorbance per well at 570 nm using an EnVision plate reader. The negative control values were subtracted from every value. The metabolic activity was calculated as a percentage relative to the positive control. The EC50 values were calculated using GraphPad Prism.

[7] = system: Raji cells; assay: CellTiter-Blue assay, Raji; format: cell-based; details: Homo sapiens, Raji cell line, 72 hours
Experimental: as §1, §2, §3

[8] = system: DOHH-2 tumor cells; assay: Mouse xenograft, subcutaneous DOHH-2 Lymphoma Model; format: in vivo; details: compared to vehicle
Experimental: Assay (i): Mouse Xenograft Protocol
The in vivo efficacy was assess in a subcutaneous xenograft DOHH-2 Lymphoma Model using Female 6-8 week old CB17/SCID Mice. […] The test compound administration started once the mean tumor size reached approximately 100-150 mm3. Compounds were administered either IP (vehicle 58% Na2HPO4 buffer (10 mM) (pH4.5)+40% PEG400+2% DMSO) or orally (vehicle Na2HPO4 buffer (10 mM) (pH 4.5)+0.2% tween 80). Tumor volumes were measured in two dimensions using a caliper, and the volume expressed in mm3 using the formula: V=(L×W×W)/2, where V is tumor volume, L is tumor length (the longest tumor dimension) and W is tumor width (the longest tumor dimension perpendicular to L).
Mice were dosed with Example 2 orally (50 mg/kg) once a day for 9 consecutive days (FIG. 5a), or Example 2 was dosed intraperitonally (25 mg/kg) in a cycle consisting of administration twice a day for three days followed by a four day no-dosing period (FIG. 5b). The cycle was repeated three times.
Mice were dosed with Example 129 intraperitonally (25 mg/kg) in a cycle consisting of administration twice a day for three days followed by a four day no-dosing period (Figure Sc). The cycle was repeated three times.
The protocol and any amendment(s) or procedures involving the care and use of animals in this study were reviewed and approved by the Institutional Animal Care and Use Committee (IACUC) of CrownBio prior to execution. During the study, the care and use of animals was conducted in accordance with the regulations of the Association for Assessment and Accreditation of Laboratory Animal Care (AAALAC).

[9] = Rat clearance and bioavailability (iv and oral dosing); format: in vivo; details: male, Sprague-Dawley, plasma, administered as a single compound
[10] = biological target: Plasmodium vivax (Pv) NMT (Plasmodium vivax (strain Salvador I), UniProt A5K1A2); assay: biochemical
Chain of Plasmodium vivax (Pv) NMT (A5K1A2 1-410): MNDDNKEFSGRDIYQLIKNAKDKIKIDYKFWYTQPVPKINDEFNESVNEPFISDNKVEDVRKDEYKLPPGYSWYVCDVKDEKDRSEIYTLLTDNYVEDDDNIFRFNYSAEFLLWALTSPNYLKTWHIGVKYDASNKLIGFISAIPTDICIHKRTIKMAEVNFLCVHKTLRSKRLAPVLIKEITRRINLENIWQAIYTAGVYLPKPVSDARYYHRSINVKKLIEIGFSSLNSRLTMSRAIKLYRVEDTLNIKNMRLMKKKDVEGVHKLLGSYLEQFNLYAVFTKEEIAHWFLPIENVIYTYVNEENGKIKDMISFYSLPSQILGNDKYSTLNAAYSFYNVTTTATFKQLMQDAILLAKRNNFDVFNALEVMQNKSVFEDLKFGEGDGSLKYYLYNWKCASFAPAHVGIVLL

[11] = system: A20 cells; assay: CellTiter-Blue assay, A20; format: cell-based, murine; details: Mus musculus, A20 cell line, 72 hours
Experimental: as §1, §2, §3

[12] = in vitro; details: male, Sprague-Dawley, rat, pooled cryopreserved rat hepatocytes, pH 7.4
[13] = biological target: Human NMT1 (HsNMT1) (Homo sapiens, UniProt P30419); assay: biochemical
Chain of Human NMT1 (HsNMT1) (P30419 whole entry, looked up): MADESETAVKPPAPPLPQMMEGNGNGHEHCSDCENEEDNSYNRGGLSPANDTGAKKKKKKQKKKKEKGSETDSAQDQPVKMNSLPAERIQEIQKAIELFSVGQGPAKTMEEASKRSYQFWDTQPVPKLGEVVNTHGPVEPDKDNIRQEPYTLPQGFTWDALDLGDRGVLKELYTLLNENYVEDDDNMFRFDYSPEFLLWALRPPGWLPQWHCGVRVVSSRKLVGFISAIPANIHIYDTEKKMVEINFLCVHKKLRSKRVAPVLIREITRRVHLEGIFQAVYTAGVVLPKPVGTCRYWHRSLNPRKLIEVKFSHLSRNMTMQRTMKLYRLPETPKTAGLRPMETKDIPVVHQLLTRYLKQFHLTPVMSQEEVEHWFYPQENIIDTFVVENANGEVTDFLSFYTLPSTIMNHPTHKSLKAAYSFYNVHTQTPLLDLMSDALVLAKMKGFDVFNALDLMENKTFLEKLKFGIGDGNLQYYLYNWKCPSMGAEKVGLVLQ

[14] = biological target: Plasmodium falciparum NMT (Plasmodium falciparum (isolate 3D7), UniProt Q8ILW6); details: cited from earlier work

Row | Structure (SMILES) | EC50 [1] | EC50 [2] | EC50 [3] | EC50 [4] | EC50 [5] | EC50 [6] | EC50 [7] | tumour volume ([8]; intraperitoneally 25 mg/kg twice a day for three days then four day no-dosing, cycle repeated three times) | tumour volume ([8]; orally 50 mg/kg once a day for 9 consecutive days) | half-life ([9]; iv 1 mg/kg, read-out: Rat iv t1/2 (converted)) | bioavailability ([9]; oral 10 mg/kg) | IC50 [10] | EC50 [11] | half-life at 1 µM [12] | IC50 [13] | selective activity for Plasmodium falciparum NMT over both human NMTs [14]
1 | C[C@H]1CN(C)CCN1c1ncc(Cl)c(N2CC(C(=O)NC(C)(C)c3cnc4ccccn34)C2)n1 [Example 2, 1-(5-chloro-2-[(2S)-2,4-dimethylpiperazin-1-yl]pyrimidin-4-yl)-N-(2-{imidazo[1,2-a]pyridin-3-yl}propan-2-yl)azetidine-3-carboxamide] | 2.4 nM | 220 nM | 218 nM | 557 nM | 51 nM | 139 nM | 556 nM | significant reduction in tumour volume | significant reduction in tumour volume | 3.5 h | 28% | 4.1 nM | 600 nM | 1.52 h | 2.7 nM | –
2 | Cc1cnc(CNC(=O)C2CN(c3nc(NCCN(C)C)ncc3Cl)C2)cn1 [PF-03531814, 1-(5-chloro-2-{[2-(dimethylamino)ethyl]amino}pyrimidin-4-yl)-N-[(5-methylpyrazin-2-yl)methyl]azetidine-3-carboxamide] | – | – | – | – | – | – | – | – | – | – | – | – | – | – | – | selective activity
